Assay results reported in patent US10765696B2, “Compositions of and methods of treatment with zwitterionic polysaccharide” (City of Hope, priority 2015, dated 2020).

What was measured:
HSV 17+ strain = experiment: Flow cytometry of infiltrating leukocytes in brainstem (CNS inflammation) at day 6 pi
T and B cells = experiment: Immune cell analysis in uninfected WT mice during/after oral PSA treatment; format: in vivo, mouse
Description: PSA increases IL-10 secreting T and B cells, as depicted in FIGS. 14A-14B.
Line plots showing CD39, CD73 and ICOS surface expression on CD4 and CD8 T cells isolated from mesenteric LN (MLN) of uninfected WT mice at indicated times during oral PSA treatment are depicted in FIGS. 16A-16B. FIG. 16A depicts CD4 T cells isolated from MLN of uninfected WT mice at indicated times during oral PSA treatment. FIG. 16B depicts CD8 T cells isolated from MLN of uninfected WT mice at indicated times during oral PSA treatment.

B cells = experiment: Splenic B cell phenotype in treated HSV infected mice; format: in vivo, mouse; conditions: six oral doses of PSA, ACV from day 4 pi, spleen day 6 pi
HSV-1 strain 17+ = experiment: HSV encephalitis (HSE) survival model, corneal scarification; format: in vivo, mouse
Procedure: 129S6 Wild Type (WT), 129 FoxP3-GFP and IL-10 knock-out (KO) mice were bred. Male and female mice aged 6-10 weeks were infected with HSV-1 strain 17+ (HSV).
Prophylactic administration: six doses of 50 μg of PSA in sterile PBS was given as indicated-orally (PO), or intra-peritoneally (IP) over 3 weeks prior to HSV infection. Additionally, six doses of PSA were given IP on 9 days before HSV infection, 6 days before HSV infection, 3 days before HSV infection, day 0 of HSV infection (i.e., on the day of infection), 2 days post-infection, and 4 days post-infection. Mice received either PBS or the anti-viral drug acyclovir (ACV) from day 4 to 10 post-infection at 50 mg/kg. Therapeutic administration: PSA was administered on days 1, 3 and 6 post HSV infection by PO, IP or intravenous injection (IV) along with ACV beginning day 4-10 post-infection (pi).
The post-infection therapeutic regimen included PSA administered day 1, day 3, day 6 post-infection, with ACV administered from day 4 post-infection. At day 4 post-HSV infection, 1.25 mg of ACV was given per mouse by IP injections daily for 7 days. […] 129 WT or Rag mice were given PSA as indicated in FIG. 3A prior to the infection. ACV was given starting at day 4 post-infection (FIG. 3B).

monocytes = experiment: Monocyte degranulation (CD107a/b), blood and spleen of treated HSV infected mice; conditions: monocytes from blood and spleen, day 6 post-infection
[1] = tested on: DCs, PMNs, CD45+ intra-epithelial lymphocytes; experiment: Binding of fluorescent PSA to immune cells after oral gavage; format: in vivo, mouse; conditions: ileum of 129 WT or Rag mice
T cells = experiment: Flow cytometry of T cells (phenotype, tetramer, intracellular cytokines) from treated HSV infected mice

Compound: Bacteroides fragilis (B. fragilis) capsular polysaccharide A (PSA)
- CNS inflammation (% CD45high infiltrates, Ly6Chigh CD11b+ inflammatory monocytes in brainstem) (HSV 17+ strain; 129 Rag mice, ACV from day 4 pi, brainstem day 6 pi): does not reduce CNS inflammation
- CNS inflammation (infiltrating leukocytes in brainstem) (HSV 17+ strain; 129 WT mice, ACV from day 4 pi, brainstem day 6 pi): reducing CNS inflammation
- CD8+ in brainstem that were CD103+ (HSV 17+ strain; 129 WT mice, brainstem): majority
- CD8+ virus specific based on tetramer staining (HSV 17+ strain; 129 WT mice, brainstem): Greater than 70%
- IL-10 secreting T and B cells (T and B cells; MLN and spleen of uninfected WT mice after 6 doses of oral PSA): increases
- accumulation of regulatory T cells (CD39, CD73, ICOS expression) (T and B cells; mesenteric lymph nodes of uninfected WT mice during oral PSA treatment): increases accumulation
- splenic B cell phenotype (CD138) (B cells): the majority of B cells express a highly activated secretory plasmablast phenotype
- survival of PSA treated B cell knockout mice or 129 Rag recipients of CD4 T cells, CD8 T cells or B cells (HSV-1 strain 17+; HSV 17+ strain, ACV from day 4 pi): B cells and T cells are essential for PSA mediated protection
- protection against HSV infection (HSV-1 strain 17+; PSA IP therapeutically day 1, day 3, day 6 with ACV from day 4 post-infection): also did not protect against HSV infection
- development of fatal HSE (HSV-1 strain 17+; mice pretreated with purified PSA prior to the HSV-1 infection, control PBS): prevented the development of fatal HSE
- protection against HSV infection (HSV-1 strain 17+; six doses of 50 μg PSA prior to and during infection (or day -8 to +4 regimen, or day 1, 3, 6 pi), ACV 1.25 mg IP daily for 7 days from day 4 pi): did not protect against HSV infection
- degranulation of monocytes following stimulation with HSV antigen (monocytes): limited degranulation
- spontaneous degranulation of monocytes (monocytes): reduced spontaneous degranulation
- IL-10 secretion from PSA stimulated CD45+ IEL [1]: induce IL-10 secretion by CD45+ IEL T cells in wild type but not Rag mice
- CD4+ ICOS+ T cells in the spleen (T cells; 129 WT mice, spleen): 56%
- CD4+ ICOS+ T cells that produced IL-10 (T cells; PMA+ ionomycin stimulation): Approximately 10%
- phenotype of FoxP3 Tregs (CD25, CD103) (T cells; cervical lymph nodes, HSV infected WT mice, ACV from d4, day 6 pi): functional phenotype
- CD62Llow CD4 T cells that were ICOS+ (T cells; oral PSA, blood and spleen, day 6 post-infection): 56%
- virus specific spleen CD8 T cells that were CD103+ (T cells; six oral doses of PSA, ACV from day 4, spleen day 6 post-infection): > 70%
- CD4s that secrete IL-10 in response to stimulation (T cells; six oral doses of PSA, ACV from day 4, spleen day 6 post-infection, PMA+ionomycin): about 11%
- frequency of Tregs (T cells; spleen or BS): No change

Compound: Nc1nc2c(ncn2COCCO)c(=O)[nH]1 [ACV, acyclovir, reference compound]
- prevention of lethal HSV encephalitis (HSE) (HSV-1 strain 17+; 129 WT mice, ACV given at day 4 post infection): Cannot Prevent Lethal HSV Encephalitis (HSE)
